In one data set the test system is Ostrinia furnacalis. Description: Determination of activity against Ostrinia furnacalis, leaf dipping method. The format is in vivo. The note with it: for insecticidal activity (mortality): leaf dipping, Brassica oleracea leaf, 72 hours. From the text:
Determination of Activity Against Ostrinia furnacalis
Leaf dipping method was adopted, a leaf of Brassica oleracea was clamped by a tweezer, and dipped in insecticide solution having a certain concentration for 3 to 5 seconds, the excessive solution was threw off, one leaf at each time, and three leaves for each sample. The leaves were placed onto a treatment paper according to the sequence of sample marking and air-dried naturally, then put into a marked straight tube of 10 cm length, and 30 Ostrinia furnacalis larvae being […] were place in, the tube opening was covered by a gauze, and placed in a standard treatment chamber, the result was checked and the mortality was calculated at 72 hours.
(§1) Some of the compounds in Example 1 were used to conduct the test, and a control compound was selected to conduct an indoor insecticidal activity data (%, concentration unit: ppm) determination test under the same condition, the results of the test was shown in Table 2.

Another data set has as its system Helicoverpa armigera. As to the kind of experiment: Determination of activity against Helicoverpa armigera, leaf dipping method (IRAC). Format: in vivo. The note with it: for insecticidal activity (mortality): leaf dipping, Brassica oleracea leaf, 72 hour.
Source text: Determination of Activity Against Helicoverpa armigera
Leaf dipping method (proposed by Insecticide Resistance Action Committee, IRAC) was adopted: a leaf of Brassica oleracea was clamped by a tweezer and dipped into an insecticide solution having a certain concentration to be tested for 3 to 5 seconds, the excessive solution was threw off, one leaf at each time, three leaves for each sample. The leaves were placed onto a treatment paper according to sequence of sample marking and air-dried naturally, then put into a marked straight tube of 10 cm length, […] in, the tube opening was covered by a gauze, and placed into a standard treatment chamber, the result was checked and the mortality was calculated at 72 hour.
as §1

The mark [1] stands for this setting: Ostrinia furnacalis, in Brassica oleracea, foliar, 72 h, read-out: insecticidal activity (mortality).
Where [2] appears, read: Helicoverpa armigera, in Brassica oleracea, foliar, 72 h, read-out: insecticidal activity (mortality).

Each structure is given as a SMILES string.

The values that follow come from patent US9301529B2, “Polysubstituted pyridyl pyrazolecarboxamide and preparation method and use thereof” (ZHAOQING ZHENGE BIOLOGICAL TECHNOLOGY CO., LTD, priority 2014, dated 2016).

What is called mortality is the share of the test organisms that died.

As for `CC(C)(C)NC(=O)c1cc(Cl)cc(Cl)c1NC(=O)c1cc(Br)nn1-c1ncccc1Cl` [Compound I-24, 1-(3-chloropyridine-2-yl)-3-bromo-N-(2,4-dichloro-6-tert-butylaminocarbonyl)phenyl-1H-pyrazole-5-formamide], the “insecticidal activity (mortality)” value in the data set on Ostrinia furnacalis (0.031 ppm) turned out to be 100%; in the data set on Ostrinia furnacalis (0.0625 ppm), 100%; in the data set on Ostrinia furnacalis (0.125 ppm) it was 100%; with Ostrinia furnacalis (0.25 ppm), 100%; in the data set with Ostrinia furnacalis (0.5 ppm), 100%; in the data set on Helicoverpa armigera (0.016 ppm), 60%. Further, the “insecticidal activity (mortality)” value turned out to be 80% in the data set on Helicoverpa armigera (0.031 ppm); 100% in the data set on Helicoverpa armigera (0.0625 ppm); 100% with Helicoverpa armigera (0.125 ppm); 100% in the data set with Helicoverpa armigera (0.25 ppm); 100% in the data set on Helicoverpa armigera (0.5 ppm).
For the compound `CNC(=O)c1cc(Cl)cc(C)c1NC(=O)c1cc(Br)nn1-c1ncccc1Cl` [KC], in the data set on Ostrinia furnacalis (setting [1]), the mortality at 0.016 ppm stood at 0%, the mortality at 0.031 ppm is 30%, the mortality at 0.0625 ppm amounted to 55% and the mortality at 0.125 ppm was determined as 75%. For the same compound, in the data set on Ostrinia furnacalis (setting [1]), the mortality at 0.25 ppm is 100% and the mortality at 0.5 ppm was found to be 100%. Moreover, in the data set on Helicoverpa armigera (setting [2]), the mortality at 0.016 ppm was 0%, the mortality at 0.031 ppm came to 0%, the mortality at 0.0625 ppm stood at 30% and the mortality at 0.125 ppm is 55%. Also, in the data set on Helicoverpa armigera (setting [2]), the mortality at 0.25 ppm came out at 70% and the mortality at 0.5 ppm worked out at 85%.
